Key:
Format in all cases: cell-based
[1] = tested on: E-cad expression in H520 cells; experiment: E-cad expression after HDAC inhibitor treatment; settings: 24 hours after treatment with 4 or 10 μM MS-275
Experimental: (§1) RNA, Primers, and Quantitative Real-Time RT-PCR. Total RNA was prepared from NSCLC cell lines using the RNAeasy (Qiagen). During the preparation all samples were treated with RNase-free DNase 1 (10 mg/ml, Qiagen) prior to cDNA synthesis. cDNA was synthesized as part of the RT-PCR reaction from […] total RNA. Quantitative Real-Time RT-PCR assays were performed using the SYBR Green RT-PCR Kit (Qiagen) using a GeneAmp 5700 Sequence Detector (Applied Biosystems), which allows amplification and detection (by fluorescence) in the same tube, using a kinetic approach. Amplification data were analyzed by using GENEAMP 5700 SDS software, converted into cycle numbers at a set cycle threshold (Ct values) and quantified in relation to a standard. Human adult-lung (Clontech Lab. Inc) or human fetal-lung RNA (Stratagene) was used as standards in all the experiments. Standards were used at […]. In each experiment a no-template control was used as a control. To normalize for the amount of input cDNA, the quantified relative amount of the generated product was divided by the amount generated for the housekeeping gene beta-Actin. All samples were performed in triplicates.
(§2) Expression of E-cad was evaluated in these cell lines.

[2] = tested on: E-cad expression in H157 cells; experiment: E-cad expression after HDAC inhibitor treatment; settings: 24 hours after treatment with 4 or 10 μM MS-275
Experimental: as §1, §2

[3] = tested on: E-cad expression in H460 cells; experiment: E-cad expression after HDAC inhibitor treatment; settings: 24 hours after treatment with 4 or 10 μM MS-275
Experimental: as §1, §2

[4] = tested on: MSK2922 head & neck cancer cell line; experiment: Modified MTT growth inhibition assay; settings: SNDX275 added as first drug
Experimental: (§3) Combination administrations were performed as sequential treatments where the HDAC inhibitor was administer prior to the EGFR inhibitor, or simultaneous treatments in selected cell lines. Concentrations of HDAC inhibitors and EGFR inhibitors are indicated as μM concentrations in all experiments. SNDX275 was administered in three increasing concentrations, with a variety of ranges depending upon the cell line.
(§4) Drugs were diluted in fresh medium before each experiment, and the final DMSO concentration was <0.1%. Growth inhibition was assessed using a modified MTT assay. 2×10^3 cells were plated in each well of 96-well flat-bottomed microtiter plates and drugs were added the next day. […] The microtiter plates were incubated for 4 hours at 37° C. The visible absorbance of each well was measured using an automated plate reader (Molecular Devices, Sunnyvale, Calif.), and data were analyzed using SlideWrite to determine the drug IC50.

[5] = tested on: Detroit562 head & neck cancer cell line; experiment: Modified MTT growth inhibition assay
Experimental: as §3, §4

[6] = tested on: Panc02.03 pancreatic cancer cell line; experiment: Modified MTT growth inhibition assay; settings: Panc 02.03
Experimental: as §3, §4

[7] = tested on: Panc03.27 pancreatic cancer cell line; experiment: Modified MTT growth inhibition assay; settings: Panc 03.27, both drugs added at the same time
Experimental: as §3, §4

[8] = tested on: HS766T pancreatic cancer cell line; experiment: Modified MTT growth inhibition assay
Experimental: as §3, §4

[9] = tested on: 584 head & neck cancer cell line; experiment: Modified MTT growth inhibition assay; settings: SNDX275 added as first drug
Experimental: as §3, §4

[10] = tested on: HPAFII pancreatic cancer cell line; experiment: Modified MTT growth inhibition assay; settings: SNDX275 added as first drug
Experimental: as §3, §4

[11] = tested on: FaDu head & neck cancer cell line; experiment: Modified MTT growth inhibition assay
Experimental: as §3, §4

[12] = tested on: 1483 head & neck cancer cell line; experiment: Modified MTT growth inhibition assay; settings: SNDX275 added as first drug
Experimental: as §3, §4

[13] = tested on: UMSCC19 head & neck cancer cell line; experiment: Modified MTT growth inhibition assay
Experimental: as §3, §4

[14] = tested on: UMSCC22B head & neck cancer cell line; experiment: Modified MTT growth inhibition assay
Experimental: as §3, §4

[15] = tested on: Panc04.03 pancreatic cancer cell line; experiment: Modified MTT growth inhibition assay; settings: Panc 04.03
Experimental: as §3, §4

[16] = SNDX275 0.60 μM alone, SNDX275 added as first drug
[17] = SNDX275 0.60 μM alone, both drugs added at the same time
[18] = SNDX275 2.00 μM alone, SNDX275 added as first drug
[19] = SNDX275 2.00 μM alone, both drugs added at the same time
[20] = SNDX275 0.6 μM alone, both drugs added at the same time
[21] = SNDX275 1.0 μM alone, SNDX275 added as first drug
[22] = SNDX275 1.0 μM alone, both drugs added at the same time
[23] = SNDX275 3.0 μM alone, SNDX275 added as first drug
[24] = SNDX275 3.0 μM alone, both drugs added at the same time
[25] = SNDX275 6.0 μM alone, SNDX275 added as first drug
[26] = SNDX275 6.0 μM alone, both drugs added at the same time

For Nc1ccccc1NC(=O)c1ccc(CNC(=O)OCc2cccnc2)cc1 [MS-275], the “upregulation of E-cad expression” value [1] was “Eight to twelve fold”, the “upregulation of E-cad expression” value [2] was “Eight to twelve fold” and the “upregulation of E-cad expression” value [3] was “Eight to twelve fold”. For the same molecule, the surviving ([4]; SNDX275 0.3 μM alone) was 68.519%, the surviving ([4]; SNDX275 0.6 μM alone) was 42.857% and the surviving ([4]; SNDX275 1.0 μM alone) was 24.438%. For the same molecule, the surviving ([5]; SNDX275 0.06 μM alone, SNDX275 added as first drug) was 75.017%, the surviving ([5]; SNDX275 0.06 μM alone, both drugs added at the same time) was 79.829% and the surviving [5, 16] was 58.925%. It also gave a surviving [5, 17] of 72.276%, a surviving [5, 18] of 23.887% and a surviving [5, 19] of 28.832%. The surviving ([6]; SNDX275 0.6 μM alone, SNDX275 added as first drug) was 71.569%, the surviving [6, 20] was 44.980% and the surviving [6, 21] was 34.220%. It also gave a surviving [6, 22] of 34.529%, a surviving [6, 23] of 24.323% and a surviving [6, 24] of 25.444%. For the same molecule, the surviving ([7]; SNDX275 0.10 μM alone) was 78.263%, the surviving ([7]; SNDX275 2.00 μM alone) was 38.926% and the surviving ([7]; SNDX275 6.00 μM alone) was 21.757%. It also gave a surviving [8, 21] of 77.851%, a surviving [8, 22] of 78.939% and a surviving [8, 25] of 40.175%. The surviving [8, 26] was 55.038%, the surviving ([8]; SNDX275 10.0 μM alone, SNDX275 added as first drug) was 77.851% and the surviving ([8]; SNDX275 10.0 μM alone, both drugs added at the same time) was 32.797%. For the same molecule, the surviving ([9]; SNDX275 0.3 μM alone) was 84.045%, the surviving ([9]; SNDX275 1.0 μM alone) was 45.516% and the surviving ([9]; SNDX275 2.0 μM alone) was 20.656%. For the same molecule, the surviving ([10]; SNDX275 0.10 μM alone) was 74.635%, the surviving ([10]; SNDX275 0.30 μM alone) was 42.098% and the surviving ([10]; SNDX275 1.00 μM alone) was 28.287%. The surviving ([11]; SNDX275 0.30 μM alone, SNDX275 added as first drug) was 69.008%, the surviving ([11]; SNDX275 0.30 μM alone, both drugs added at the same time) was 87.506% and the surviving [11, 16] was 48.451%. It also gave a surviving [11, 17] of 73.418%, a surviving [11, 18] of 20.262% and a surviving [11, 19] of 30.504%. The surviving ([12]; SNDX275 0.6 μM alone) was 79.246%, the surviving ([12]; SNDX275 2.0 μM alone) was 51.509% and the surviving ([12]; SNDX275 3.0 μM alone) was 31.776%. For the same molecule, the surviving ([13]; SNDX275 0.60 μM alone, SNDX275 added as first drug (first table)) was 73.417%, the surviving ([13]; SNDX275 0.60 μM alone, SNDX275 added as first drug (second table)) was 83.778% and the surviving ([13]; SNDX275 2.00 μM alone, SNDX275 added as first drug (first table)) was 54.951%. The surviving ([13]; SNDX275 2.00 μM alone, SNDX275 added as first drug (second table)) was 46.466%, the surviving ([13]; SNDX275 6.00 μM alone, SNDX275 added as first drug (first table)) was 24.242% and the surviving ([13]; SNDX275 6.00 μM alone, SNDX275 added as first drug (second table)) was 37.033%. For the same molecule, the surviving [14, 21] was 73.156%, the surviving [14, 22] was 76.730% and the surviving ([14]; SNDX275 2.0 μM alone, SNDX275 added as first drug) was 55.978%. The surviving ([14]; SNDX275 2.0 μM alone, both drugs added at the same time) was 63.169%, the surviving [14, 25] was 25.180% and the surviving [14, 26] was 55.057%. For the same molecule, the surviving ([15]; SNDX275 0.3 μM alone, SNDX275 added as first drug) was 71.205, the surviving [15, 20] was 63.051% and the surviving [15, 21] was 49.175. It also gave a surviving [15, 22] of 28.676%, a surviving [15, 23] of 37.954 and a surviving [15, 24] of 25.551%.
